Results as given in article PMC9374377, “Noninvasive interrogation of CD8^+ T cell effector function for monitoring early tumor responses to immunotherapy” (The Journal of Clinical Investigation, 2022).
Where a SMILES comes first, the peptide text is derived from it. The star is where a group is joined. X1 = O=C(O)CN1CCN(CC(=O)O)CC(Cc2ccc(NC(=S)*)cc2)N(CC(=O)O)CC1

What was measured:
MC38 tumor–bearing mice [1] = experiment: FTY720 treatment of MC38 tumor–bearing mice under anti–PD-1 plus anti–CTLA-4; assay type: in vivo, mouse
Source text: MC38 or B16-OVA tumor–bearing C57BL/6 mice were euthanized, and tumor tissues were harvested and digested with 10 U/mL collagenase I, 400 U/mL collagenase IV, and 30 U/mL DNase (Yuanye Bio-Technology) to generate single-cell suspensions. The following fluorescently labeled antibodies were then used for staining of different markers: anti-CD45 (clone 30-F11, BioLegend), anti-CD4 (clone RM4-5, eBioscience), anti-CD8 (clone 53-6.7, BioLegend), anti-NK1.1 (clone PK136, BioLegend), anti–granzyme B (clone QA16A02, BioLegend), and anti–IFN-γ (clone XMG1.2, BioLegend). For granzyme B and IFN-γ staining, cells were incubated in culture medium containing a cell activation cocktail (catalog 423303, BioLegend) at 37°C for 5 hours and then washed with permeabilization wash buffer (catalog 421002, BioLegend) before being stained with fluorescently labeled antibodies. Data collection and analysis were performed on a flow cytometer (Becton Dickinson).
The tumor sections were fixed with ice-cold acetone for 10 minutes and washed with PBS. Next, the slices were blocked with 1% BSA for 1 hour and incubated with rabbit anti–mouse granzyme B antibody (catalog 17215S, Cell Signaling Technology) or rabbit anti–mouse NK1.1 antibody (clone EPR22990-31, Abcam) overnight at 4°C. The slices were then visualized by incubation with FITC-conjugated secondary antibody (catalog E031220-01, Earthox) and DAPI (Biotium) under a confocal microscope (Leica).

MC38 tumor–bearing mice [2] = conditions: mouse, in vivo
Procedure: (§1) Small-animal PET scanning and image analysis were performed using a Super Nova PET/CT scanner ([sequence]). […] At the indicated times (0.5, 1, and 2 hours) after injection, 10-minute static PET scans were acquired. PET images were analyzed, and the region of interest–derived (ROI-derived) %ID/g values were calculated as described previously ([52]).
MC38 tumor-bearing C57BL/6 mice were pretreated with anti-PD-1 antibody
For the small-animal PET imaging studies, ten MC38 tumor-bearing C57BL/6 mice
CTLA-4 (clone 9D9; BioXcell) antibodies on days 0, 3, and 6 after the tumor size
grazytracer. Mice were anesthetized with 2% inhaled isoflurane, and 10-min static PET
scans were acquired at 0.5, 1, and 2 h postinjection using a small-animal Super Nova
PET/CT scanner ([sequence], Shanghai, China). The tumor %ID/g values and tumor-
to-muscle ratios of 68Ga-NOTA-GZP and 68Ga-grazytracer were calculated for

4T1 tumor–bearing mice = conditions: mouse, in vivo
Procedure: as §1

[3] = In vivo metabolic stability (serum and urine, radio-HPLC); design: species or system mouse; conditions: female C57BL/6 normal mice, 5.55 MBq i.v.
Source text: μg/day on days 0, 3, and 6).
distribution of the radiotracer in the main organs. Mice were euthanized at 0.5, 1, and
and measured using a γ counter (Packard, Meriden, CT). The results are presented as
In vivo metabolic stability studies
grazytracer or 68Ga-NOTA-GZP.
and analyzed using radio-HPLC.

CCCCCCCCc1ccc(CCC(N)(CO)CO)cc1 [FTY720]
effect on the antitumor effect of anti–PD-1 plus anti–CTLA-4 (MC38 tumor–bearing mice [1]; 25 μg i.p. on day –1, 10 μg daily day 0 to 12, n = 6–9): partially reversed the antitumor effect | body weight (MC38 tumor–bearing mice [1]; MC38 mice, n = 6–9): without influencing body weight | granzyme B secretion in tumors (immunofluorescence) (MC38 tumor–bearing mice [1]; MC38 tumors on day 6): reduced granzyme B secretion in tumors | levels of NK, CD4+ T and CD8+ T cells in tumor versus group without FTY720 (MC38 tumor–bearing mice [1]; flow cytometry, day 6, n = 5/group): significantly lower

OC[C@H]1OC(O)[C@H](F)[C@@H](O)[C@@H]1O (some centres unmarked) [^18F-FDG, ^18F-fluorodeoxyglucose]
change of tumor uptake from days 0 to 6, pseudoprogression MC38 model (MC38 tumor–bearing mice [2]): significantly increased | change of tumor uptake from days 0 to 6, true-progression 4T1 model (4T1 tumor–bearing mice): significantly increased

CC[C@H](C)[C@H](NC(=O)CNC(=O)CNC(=O)CNC(=S)Nc1ccc(CC2CN(CC(=O)O)CCN(CC(=O)O)CCN2CC(=O)O)cc1)C(=O)N[C@@H](CCC(=O)O)C(=O)N[C@@H](Cc1ccccc1)C(=O)N[C@H](C=O)CC(=O)O (some centres unmarked) [^68Ga-NOTA-GZP, ^68Ga-1,4,7–triazacyclononane-1,4,7-triacetic acid–GZP, metal not drawn] (X1-GGGIEFD-aldehyde)
in vivo metabolic stability in blood ([3]; serum at 0.5 hours after injection): favorable stability in the blood | in vivo metabolic stability in urine ([3]; urine at 0.5 hours after injection): some decomposition in urine
